Test [1] has as its target Human recombinant Acetyl-CoA Carboxylase 2 (ACC2) (Homo sapiens, UniProt O00763). Kind of test: Assay Y: ACC2 inhibition, inorganic phosphate (Malachite Green). Type of test: biochemical. Conditions: Assay Y: room temperature, 3 hr, 15 min preincubation. The method, then: (§1) Preincubation of 6 μL enzyme together with 0.3 μL compound for 15 min was done before the reaction was initiated by the addition of 4 μL substrate. […] After 3 hr the reaction was stopped by addition of 60 μL of water followed by 30 μL Malachite Green solution. The Malachite Green solution was prepared by mixing 16.4 mL ammonium molybdate solution (7.5%), 1.64 mL Tween (11%) with 82 mL Malachite Green/H2SO4-solution (0.7 g Malachite Green to 1000 mL of 10% (v/v) H2SO4). Plates were left for 10 min at room temperature before reading the absorbance at 670 nm. All compounds were tested in triplicate at 10 different concentrations. Control compound (0, 50 and 100% effect) was included on each plate. […] An IC50 value was derived by non-linear regression curve fitting using the following equation: […]))) where A is the non-specific binding, B is the total binding, C is the IC50 and D is the slope. Saturation binding Kd and Bmax were derived using the equation y=((B1 max*x)/(Kd+x)).

Test [2] addresses Human recombinant Acetyl-CoA Carboxylase 1 (ACC1) (Homo sapiens, UniProt Q13085). Kind of test: Assay Y: ACC1 inhibition, inorganic phosphate (Malachite Green). It is filed as biochemical. Particulars: Assay Y: room temperature, 3 hr, 15 min preincubation. The method, then:
as §1

This is an account of results in patent US20090306133A1, “New Acetyl Coenzyme A Carboxylase (ACC) Inhibitors And Uses In Treatments Of Obesity And Diabetes Mellitus - 087” (ASTRAZENECA AB, priority 2007, published 2009).

pIC50: −log10 of the molar value.

Human recombinant Acetyl-CoA Carboxylase 2 (ACC2), sequence (O00763 whole entry): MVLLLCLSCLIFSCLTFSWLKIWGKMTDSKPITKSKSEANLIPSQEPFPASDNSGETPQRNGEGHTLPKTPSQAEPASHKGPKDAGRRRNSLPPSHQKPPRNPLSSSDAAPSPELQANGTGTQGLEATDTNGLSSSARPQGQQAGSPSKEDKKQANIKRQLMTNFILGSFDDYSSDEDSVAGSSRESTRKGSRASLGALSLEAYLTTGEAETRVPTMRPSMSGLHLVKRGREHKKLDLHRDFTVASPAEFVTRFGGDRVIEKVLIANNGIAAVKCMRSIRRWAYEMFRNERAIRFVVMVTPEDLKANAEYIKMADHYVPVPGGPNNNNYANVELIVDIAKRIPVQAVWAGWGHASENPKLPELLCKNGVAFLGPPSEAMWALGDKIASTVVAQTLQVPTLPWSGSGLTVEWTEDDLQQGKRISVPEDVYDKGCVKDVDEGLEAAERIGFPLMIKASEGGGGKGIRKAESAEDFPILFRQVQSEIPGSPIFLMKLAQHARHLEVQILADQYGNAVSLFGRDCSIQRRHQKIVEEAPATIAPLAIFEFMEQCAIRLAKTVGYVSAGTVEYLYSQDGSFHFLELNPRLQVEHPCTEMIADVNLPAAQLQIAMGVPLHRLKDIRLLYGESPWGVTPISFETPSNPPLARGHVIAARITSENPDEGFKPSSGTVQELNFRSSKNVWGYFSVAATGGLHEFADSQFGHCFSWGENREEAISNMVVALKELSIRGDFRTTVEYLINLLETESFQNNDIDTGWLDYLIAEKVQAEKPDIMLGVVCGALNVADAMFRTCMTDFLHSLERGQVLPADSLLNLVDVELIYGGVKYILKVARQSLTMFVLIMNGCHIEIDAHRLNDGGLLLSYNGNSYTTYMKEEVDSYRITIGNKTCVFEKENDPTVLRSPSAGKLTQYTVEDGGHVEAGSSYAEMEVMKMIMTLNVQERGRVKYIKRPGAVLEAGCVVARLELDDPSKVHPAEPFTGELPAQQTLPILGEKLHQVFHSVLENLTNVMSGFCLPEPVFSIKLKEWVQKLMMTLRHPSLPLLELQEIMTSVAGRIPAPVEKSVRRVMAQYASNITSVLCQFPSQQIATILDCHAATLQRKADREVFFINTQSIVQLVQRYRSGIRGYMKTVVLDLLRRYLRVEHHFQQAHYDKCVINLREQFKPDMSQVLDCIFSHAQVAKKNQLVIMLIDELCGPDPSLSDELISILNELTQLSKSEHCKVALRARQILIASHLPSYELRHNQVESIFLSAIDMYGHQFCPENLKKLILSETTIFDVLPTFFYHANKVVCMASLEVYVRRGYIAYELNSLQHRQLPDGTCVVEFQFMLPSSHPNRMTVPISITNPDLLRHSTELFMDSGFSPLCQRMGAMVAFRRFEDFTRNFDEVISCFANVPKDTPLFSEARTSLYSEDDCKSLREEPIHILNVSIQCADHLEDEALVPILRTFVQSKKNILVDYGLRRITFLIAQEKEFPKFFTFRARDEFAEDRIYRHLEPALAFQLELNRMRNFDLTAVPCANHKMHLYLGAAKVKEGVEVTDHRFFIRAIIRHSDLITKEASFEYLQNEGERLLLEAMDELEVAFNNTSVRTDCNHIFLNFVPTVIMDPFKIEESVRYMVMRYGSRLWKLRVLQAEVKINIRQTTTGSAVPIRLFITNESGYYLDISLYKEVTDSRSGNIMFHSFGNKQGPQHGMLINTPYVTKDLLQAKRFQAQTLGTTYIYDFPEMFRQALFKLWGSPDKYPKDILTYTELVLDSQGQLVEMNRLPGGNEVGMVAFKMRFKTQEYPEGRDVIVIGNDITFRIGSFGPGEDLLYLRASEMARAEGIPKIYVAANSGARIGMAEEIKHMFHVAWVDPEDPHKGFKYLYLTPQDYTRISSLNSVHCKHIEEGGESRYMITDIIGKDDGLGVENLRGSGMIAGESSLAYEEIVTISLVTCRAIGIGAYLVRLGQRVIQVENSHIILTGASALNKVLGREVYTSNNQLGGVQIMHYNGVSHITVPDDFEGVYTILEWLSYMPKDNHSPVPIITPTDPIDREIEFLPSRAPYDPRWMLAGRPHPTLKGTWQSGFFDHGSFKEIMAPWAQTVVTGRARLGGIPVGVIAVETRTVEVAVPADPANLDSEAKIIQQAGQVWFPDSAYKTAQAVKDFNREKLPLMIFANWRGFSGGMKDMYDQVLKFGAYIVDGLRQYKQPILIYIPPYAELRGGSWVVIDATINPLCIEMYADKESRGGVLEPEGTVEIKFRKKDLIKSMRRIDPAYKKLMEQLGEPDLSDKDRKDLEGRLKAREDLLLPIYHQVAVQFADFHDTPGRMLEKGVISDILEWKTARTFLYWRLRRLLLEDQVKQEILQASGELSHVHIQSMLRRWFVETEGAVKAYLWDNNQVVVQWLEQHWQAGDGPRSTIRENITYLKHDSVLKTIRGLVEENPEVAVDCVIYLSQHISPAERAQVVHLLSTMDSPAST

For `CN1CCN(c2ccc(-c3cc(C(=O)NC[C@H]4CC[C@H](CNC(=O)OCC5CCO5)CC4)c4ccccc4n3)cn2)CC1` (relative stereo) [Example 111, Oxetan-2-ylmethyl-[(trans-4-{[({2-[6-(4-methylpiperazin-1-yl)pyridin-3-yl]quinolin-4-yl}carbonyl)amino]methyl}cyclohexyl)methyl]carbamate], the pIC50 in test [1] was 6.15; in test [2], 5.50. The matching figures for `CN1CCN(c2ccc(-c3cc(C(=O)NC[C@H]4CC[C@H](CNC(=O)OC5CCOC5)CC4)c4ccccc4n3)cn2)CC1` (relative stereo) [Example 114, Tetrahydrofuran-3-yl-[(trans-4-{[({2-[6-(4-methylpiperazin-1-yl)pyridin-3-yl]quinolin-4-yl}carbonyl)amino]methyl}cyclohexyl)methyl]carbamate]: 6.48 and 5.62. For `COC[C@H](C)OC(=O)NC[C@H]1CC[C@H](CNC(=O)c2cc(-c3ccc(N4CCN(C)CC4)nc3)nc3ccccc23)CC1` (stereo in doubt) [Example 112, (1S)-2-Methoxy-1-methylethyl[(trans-4-{[({2-[6-(4-methylpiperazin-1-yl)pyridin-3-yl]quinolin-4-yl}carbonyl)amino]methyl}cyclohexyl)methyl]carbamate], the pIC50 in test [1] is 6.42; in test [2], 5.57.

Take `COC[C@@H](C)OC(=O)NC[C@H]1CC[C@H](CNC(=O)c2cc(-c3ccc(N4CCN(C)CC4)nc3)nc3ccccc23)CC1` (stereo in doubt) [Example 113, (1R)-2-Methoxy-1-methylethyl[(trans-4-{[({2-[6-(4-methylpiperazin-1-yl)pyridin-3-yl]quinolin-4-yl}carbonyl)amino]methyl}cyclohexyl)methyl]carbamate]: the pIC50 in test [1] is 6.03; in test [2], 5.11.

In the case of `CN1CCN(c2ccc(-c3cc(C(=O)NC[C@H]4CC[C@H](CNC(=O)OC(C)(C)C)CC4)c4ccccc4n3)cn2)CC1` [Example 1, tert-butyl [(trans-4-{[({2-[6-(4-methylpiperazin-1-yl)pyridin-3-yl]quinolin-4-yl}carbonyl)amino]methyl}cyclohexyl)methyl]carbamate], the pIC50 in test [1] is 7.30; in test [2] it was 6.70. Turning to `Cc1[nH]c(=O)ccc1-c1cc(C(=O)NC[C@H]2CC[C@H](CNC(=O)OC(C)(C)C)CC2)c2ccccc2n1` [Example 2, tert-Butyl ({trans-4-[({[2-(2-methyl-6-oxo-1,6-dihydropyridin-3-yl)quinolin-4-yl]carbonyl}amino)methyl]cyclohexyl}methyl)carbamate], the pIC50 in test [1] was 5.53; in test [2], less than 4.70.

As to `CC(C)(C)OC(=O)NC[C@H]1CC[C@H](CNC(=O)c2cc(-c3cnccn3)nc3ccccc23)CC1` [Example 3, tert-Butyl {[trans-4-({[(2-pyrazin-2-ylquinolin-4-yl)carbonyl]amino}methyl)cyclohexyl]methyl}carbamate], the pIC50 is 6.19 in test [1] and 5.82 in test [2].

Take `CCOc1ccc(-c2cc(C(=O)NC[C@H]3CC[C@H](CNC(=O)OC(C)(C)C)CC3)c3ccccc3n2)cc1` [Example 4, tert-Butyl ({trans-4-[({[2-(4-ethoxyphenyl)quinolin-4-yl]carbonyl}amino)methyl]-cyclohexyl}methyl)carbamate]: the pIC50 in test [1] was 6.41; in test [2] it was 5.88.

As for `CC(C)(C)OC(=O)NC[C@H]1CC[C@H](CNC(=O)c2cc(-c3ccc(C(N)=O)nc3)nc3ccccc23)CC1` [Example 5, tert-Butyl ({trans-4-[({[2-(6-carbamoylpyridin-3-yl)quinolin-4-yl]carbonyl}amino)-methyl]cyclohexyl}methyl)carbamate], the pIC50 in test [1] was 6.59; in test [2], 5.91. As to `CC(C)(C)OC(=O)NC[C@H]1CC[C@H](CNC(=O)c2cc(-c3ccccc3)nc3ccccc23)CC1` [Example 6, tert-butyl {[trans-4-({[(2-phenylquinolin-4-yl)carbonyl]amino}methyl)cyclohexyl]methyl}carbamate], the pIC50 in test [1] is 6.62; in test [2], 6.25. In the case of `CC(C)(C)OC(=O)NC[C@H]1CC[C@H](CNC(=O)c2cc(-c3ccncc3)nc3ccccc23)CC1` [Example 7, tert-butyl {[trans-4-({[(2-pyridin-4-ylquinolin-4-yl)carbonyl]amino}methyl)cyclohexyl]methyl}-carbamate], the values for the pIC50 in test [1] and in test [2] were 6.68 and 5.99, respectively. On to `CC(C)(C)OC(=O)NC[C@H]1CC[C@H](CNC(=O)c2cc(-c3cccc(C(N)=O)c3)nc3ccccc23)CC1` [Example 8, tert-Butyl ({trans-4-[({[2-(3-carbamoylphenyl)quinolin-4-yl]carbonyl}amino)methyl]-cyclohexyl}methyl)carbamate], for which the results for the negative-log IC50 (pIC50) in test [1] and in test [2] were 7.10 and 6.51, respectively. As for `CC(C)(C)OC(=O)NC[C@H]1CC[C@H](CNC(=O)c2cc(-c3ccc(C(N)=O)cc3)nc3ccccc23)CC1` [Example 9, tert-butyl ({trans-4-[({[2-(4-carbamoylphenyl)quinolin-4-yl]carbonyl}amino)methyl]cyclohexyl}methyl)carbamate], the pIC50 was 7.40 in test [1] and 6.60 in test [2]. As for `CN(C)CCCOc1ccc(-c2cc(C(=O)NC[C@H]3CC[C@H](CNC(=O)OC(C)(C)C)CC3)c3ccccc3n2)cn1` [Example 10, tert-Butyl {[trans-4-({[(2-{6-[3-(dimethylamino)propoxy]pyridin-3-yl}quinolin-4-yl)carbonyl]amino}methyl)cyclohexyl]methyl}carbamate], the pIC50 in test [1] is 7.40; in test [2], 6.52.

Take `CN(C)c1ccc(-c2cc(C(=O)NC[C@H]3CC[C@H](CNC(=O)OC(C)(C)C)CC3)c3ccccc3n2)cn1` [Example 11, tert-Butyl [(trans-4-{[({2-[6-(dimethylamino)pyridin-3-yl]quinolin-4-yl}carbonyl)-amino]methyl}cyclohexyl)methyl]carbamate]: the pIC50 in test [1] is 7.00; in test [2] it was 5.91.

Regarding `CC(C)(C)OC(=O)NC[C@H]1CC[C@H](CNC(=O)c2cc(-c3ccc(C(F)(F)F)cc3)nc3ccccc23)CC1` [Example 12, tert-Butyl [(trans-4-{[({2-[4-(trifluoromethyl)phenyl]quinolin-4-yl}carbonyl)amino]-methyl}cyclohexyl)methyl]carbamate], the pIC50 is 6.25 in test [1] and less than 4.70 in test [2]. On to `CC(=O)c1ccc(-c2cc(C(=O)NC[C@H]3CC[C@H](CNC(=O)OC(C)(C)C)CC3)c3ccccc3n2)s1` [Example 13, tert-Butyl ({trans-4-[({[2-(5-acetyl-2-thienyl)quinolin-4-yl]carbonyl}amino)methyl]-cyclohexyl}methyl)carbamate], for which the pIC50 in test [1] was 6.80; in test [2], 6.35. For `CC(C)(C)OC(=O)NC[C@H]1CC[C@H](CNC(=O)c2cc(-c3ccc(F)cc3)nc3ccccc23)CC1` [Example 14, tert-Butyl ({trans-4-[({[2-(4-fluorophenyl)quinolin-4-yl]carbonyl}amino)methyl]-cyclohexyl}methyl)carbamate], the pIC50 in test [1] is 6.74; in test [2] it was 6.16. Regarding `Cc1noc(C)c1-c1cc(C(=O)NC[C@H]2CC[C@H](CNC(=O)OC(C)(C)C)CC2)c2ccccc2n1` [Example 15, tert-Butyl ({trans-4-[({[2-(3,5-dimethylisoxazol-4-yl)quinolin-4-yl]carbonyl}amino)-methyl]cyclohexyl}methyl)carbamate], the pIC50 in test [1] was 5.54; in test [2], less than 4.70.

For `CC(C)(C)OC(=O)NC[C@H]1CC[C@H](CNC(=O)c2cc(-c3cccnc3)nc3ccccc23)CC1` [Example 16, tert-Butyl {[trans-4-({[(2-pyridin-3-ylquinolin-4-yl)carbonyl]amino}methyl)cyclo-hexyl]methyl}carbamate], the pIC50 is 6.49 in test [1] and 5.69 in test [2].

Take `CCOC(=O)NC[C@H]1CC[C@H](CNC(=O)c2cc(-c3ccc(F)cc3)nc3ccccc23)CC1` [Example 17, Ethyl ({trans-4-[({[2-(4-fluorophenyl)quinolin-4-yl]carbonyl}amino)methyl]cyclo-hexyl}methyl)carbamate]: the pIC50 in test [1] was 5.71; in test [2] it was less than 4.70.

On to `CCOC(=O)NC[C@H]1CC[C@H](CNC(=O)c2cc(-c3ccc(C(=O)N(C)C)cc3)nc3ccccc23)CC1` [Example 18, Ethyl [(trans-4-{[({2-[4-(dimethylcarbamoyl)phenyl]quinolin-4-yl}carbonyl)amino]-methyl}cyclohexyl)methyl]carbamate], for which the negative-log IC50 (pIC50) is 5.74 in test [1] and 5.31 in test [2]. For `CCOC(=O)NC[C@H]1CC[C@H](CNC(=O)c2cc(-c3cccc(C(N)=O)c3)nc3ccccc23)CC1` [Example 19, Ethyl ({trans-4-[({[2-(3-carbamoylphenyl)quinolin-4-yl]carbonyl}amino)methyl]-cyclohexyl}methyl)carbamate], the values for the negative logarithm of the IC50 (pIC50) in test [1] and in test [2] were 6.11 and 5.92, respectively. In the case of `CC(C)(C)OC(=O)NC[C@H]1CC[C@H](CNS(=O)(=O)c2ccc3c(c2)OCCO3)CC1` [Example 69, tert-Butyl [(trans-4-{[(2,3-dihydro-1,4-benzodioxin-6-ylsulfonyl)amino]methyl}cyclo-hexyl)methyl]carbamate], the pIC50 in test [1] was 5.32.
